Reference: patent US20110160053A1, “Synergistic Combination of Prothioconazole and Metominostrobin” (Bayer CropScience AG, priority 2009, published 2011)

Key:
Assay type in all cases: in vivo
[1] = test system: Blumeria graminis fsp. tritici; assay: Blumeria test (wheat) / preventive; conditions: rate of application 62.5 ppm, evaluated 7 days after inoculation
Procedure: [table] To produce a suitable preparation of active compound, 1 part by weight of active compound or active compound combination is mixed with the stated amounts of solvent and emulsifier, and the concentrate is diluted with water to the desired concentration. To test for preventive activity, young plants are sprayed with the preparation of active compound or active compound combination at the stated rate of application. After the spray coating has been dried, the plants are dusted with spores of Blumeria graminis fsp. tritici. The plants are placed in the greenhouse at a temperature of approximately 18° C. and a relative atmospheric humidity of approximately 80% to promote the development of mildew pustules. The test is evaluated 7 days after the inoculation. 0% means an efficacy which corresponds to that of the control, while an efficacy of 100% means that no disease is observed.

[2] = test system: Sphaerotheca fuliginea; assay: Sphaerotheca test (cucumbers) / protective; conditions: rate of application 2 ppm, evaluated 7 days after inoculation
Procedure: [table] To produce a suitable preparation of active compound, 1 part by weight of active compound is mixed with the stated amounts of solvent and emulsifier, and the concentrate is diluted with water to the desired concentration. To test for protect activity, young plants are sprayed with the preparation of active compound at the stated rate of application. After the spray coating has dried on, the plants are inoculated with an aqueous spore suspension of Sphaerotheca fuliginea. The plants are then placed in a greenhouse at approximately 23° C. and a relative atmospheric humidity of approximately 70%. The test is evaluated 7 days after the inoculation. 0% means an efficacy which corresponds to that of the control, while an efficacy of 100% means that no disease is observed.

[3] = test system: Phakopsora pachyrhizi; assay: Phakopsora test (soybeans) / protective; conditions: evaluated 11 days after inoculation
Procedure: To produce a suitable preparation of active compound, 1 part by weight of active compound or active compound combination is mixed with the stated amounts of solvent and emulsifier, and the concentrate is diluted with water to the desired concentration.
To test for protective activity, young plants are sprayed with the preparation of active compound or active compound combination at the stated rate of application. After the spray coating has dried on, the plants are placed in a greenhouse at a temperature of approximately 23° C. and a relative atmospheric humidity of approximately 70%.
1 day after spraying, the plants are inoculated with an aqueous spore suspension of the causal agent of soybean rust (Phakopsora pachyrhizi). The plants are then placed in a greenhouse at approximately 20° C. and a relative atmospheric humidity of approximately 80%. The test is evaluated 11 days after the inoculation. 0% means an efficacy which corresponds to that of the control, while an efficacy of 100% means that no disease is observed.

| Compound | Efficacy in % [1] [%] | Efficacy in % [2] [%] | Efficacy in % ([3]; rate of application 2.5 ppm) [%] | Efficacy in % ([3]; rate of application 5 ppm) [%] | Efficacy in % ([3]; rate of application 0.1 ppm) [%] | Efficacy in % ([3]; rate of application 0.5 ppm) [%] |
| --- | --- | --- | --- | --- | --- | --- |
| CNC(=O)/C(=N/OC)c1ccccc1Oc1ccccc1 [Metominostrobin, (E)-α-(methoxyimino)-N-methyl-2-phenoxy-benzeneacetamide] | 50 | 0 | 0 | 20 | – | – |
| OC(Cc1ccccc1Cl)(Cn1nc[nH]c1=S)C1(Cl)CC1 (centres unmarked) [Prothioconazole, 2-[2-(1-chlorocyclopropyl)-3-(2-chlorophenyl)-2-hydroxypropyl]-2,4-dihydro-[1,2,4]-triazole-3-thione] | 13 | 65 | – | – | 20 | 50 |
